The values that follow come from publication PMC3388869, “High-affinity multivalent wheat germ agglutinin ligands by one-pot click reaction” (Beilstein Journal of Organic Chemistry, 2012).

Like-named read-outs stand apart in the source and are kept apart here.

For experiment [1], the target named is T1, wheat germ agglutinin (WGA) (Triticum aestivum, UniProt P10969).
T1 sequence (P10969 1-171 limits assumed): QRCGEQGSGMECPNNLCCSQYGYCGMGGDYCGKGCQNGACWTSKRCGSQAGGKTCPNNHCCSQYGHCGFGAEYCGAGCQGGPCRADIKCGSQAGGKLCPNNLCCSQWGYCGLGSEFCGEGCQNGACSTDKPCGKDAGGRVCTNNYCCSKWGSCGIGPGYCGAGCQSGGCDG
Nature of the experiment: enzyme-linked lectin assay (ELLA): inhibition of binding of HRP-labeled WGA to covalently immobilized GlcNAc. Also on record: species or system Triticum vulgaris. Particulars: for β (relative inhibitory potency): referenced to N,N'-diacetylchitobiose (β = 1); for fold lower IC50 value than GlcNAc: relative to GlcNAc. How it is done:
Binding potencies of compounds C1–C6, GlcNAc, and N,N’-diacetylchitobiose were determined by an ELLA employing covalently immobilized GlcNAc as a reference ligand, as described recently. GlcNAc-coated microtiter plates were incubated with mixtures of horseradish-peroxidase-labeled WGA (HRP-WGA) and synthetic WGA ligands in varying concentrations. After incubation, the plates were washed and the remaining HRP-WGA bound to the microtiter plates was quantified by a HRP-catalyzed color reaction. From these curves the concentrations at which the binding of HRP–WGA to GlcNAc is reduced by 50% (IC50 values) were determined as a measure of the potency of the synthesized inhibitors (Table 2). Also shown in Table 2 are the relative inhibitory potencies (β values) referenced to N,N’-diacetylchitobiose (β = 1).

A further experiment deals with WGA. Also on record: method as in PMID 1472499. Particulars: WGA–ligand interaction; cited from earlier work.
The mark [2] stands for this setting: inhibition of binding of HRP-labeled WGA to covalently immobilized GlcNAc, read-out: IC50.

A word on the IC50: it is the concentration needed to halve the response being measured.

In the case of `CC(=O)N[C@H]1[C@H](OCc2cn(CCN(CCn3cc(CO[C@@H]4O[C@H](CO)[C@@H](O[C@@H]5O[C@H](CO)[C@@H](O)[C@H](O)[C@H]5NC(C)=O)[C@H](O)[C@H]4NC(C)=O)nn3)CCn3cc(CO[C@@H]4O[C@H](CO)[C@@H](O[C@@H]5O[C@H](CO)[C@@H](O)[C@H](O)[C@H]5NC(C)=O)[C@H](O)[C@H]4NC(C)=O)nn3)nn2)O[C@H](CO)[C@@H](O[C@@H]2O[C@H](CO)[C@@H](O)[C@H](O)[C@H]2NC(C)=O)[C@@H]1O` [C6], the IC50 is 0.66 µM in experiment [1] (calculated per contained chitobiose, read-out: IC50 per contained chitobiose) and 0.22 µM in experiment [1] (setting [2]). In addition, the “β (relative inhibitory potency)” value in experiment [1] is recorded as 2800. Moreover, in experiment [1] (relative to C4), the “fold increased inhibition potency over the best divalent ligand C4” value worked out at 2.8. In experiment [1], the “fold lower IC50 value than GlcNAc” value is 230000.

In the case of `CC(=O)N[C@H]1[C@H](O[C@H]2[C@H](O)[C@@H](NC(C)=O)C(O)O[C@@H]2CO)O[C@H](CO)[C@@H](O)[C@@H]1O` (stereo partly drawn) [N,N'-diacetylchitobiose, reference compound], the “association constant K” value in the experiment on WGA was 5 × 10^3 to 2 × 10^4 M^–1. For the same molecule, the IC50 in experiment [1] (setting [2]) came out at 620 µM. For the same molecule, in experiment [1], the “β (relative inhibitory potency)” value turned out to be 1 and the “fold lower IC50 value than GlcNAc” value worked out at 82.

`CC(=O)N[C@H]1[C@H](OCc2cn(CCCOCCCCOCCCn3cc(CO[C@@H]4O[C@H](CO)[C@@H](O[C@@H]5O[C@H](CO)[C@@H](O)[C@H](O)[C@H]5NC(C)=O)[C@H](O)[C@H]4NC(C)=O)nn3)nn2)O[C@H](CO)[C@@H](O[C@@H]2O[C@H](CO)[C@@H](O)[C@H](O)[C@H]2NC(C)=O)[C@@H]1O` [C4]: the IC50 in experiment [1] (setting [2]) was found to be 0.6 µM. Moreover, the “relative potency per chitobiose residue” value in experiment [1] (relative to N,N'-diacetylchitobiose, per chitobiose residue) amounted to 500.

Take `CC(=O)N[C@H]1[C@H](OCc2cn(Cc3cccc(Cn4cc(CO[C@@H]5O[C@H](CO)[C@@H](O[C@@H]6O[C@H](CO)[C@@H](O)[C@H](O)[C@H]6NC(C)=O)[C@H](O)[C@H]5NC(C)=O)nn4)c3)nn2)O[C@H](CO)[C@@H](O[C@@H]2O[C@H](CO)[C@@H](O)[C@H](O)[C@H]2NC(C)=O)[C@@H]1O` [C2]: the IC50 in experiment [1] (setting [2]) was found to be 1.3 µM. Also, in experiment [1], the “β (relative inhibitory potency)” value was 480.

On to `CC(=O)N[C@H]1[C@H](OCc2cn(Cc3ccc(Cn4cc(CO[C@@H]5O[C@H](CO)[C@@H](O[C@@H]6O[C@H](CO)[C@@H](O)[C@H](O)[C@H]6NC(C)=O)[C@H](O)[C@H]5NC(C)=O)nn4)cc3)nn2)O[C@H](CO)[C@@H](O[C@@H]2O[C@H](CO)[C@@H](O)[C@H](O)[C@H]2NC(C)=O)[C@@H]1O` [C3], for which the IC50 in experiment [1] (setting [2]) was determined as 1.9 µM. In addition, the “β (relative inhibitory potency)” value in experiment [1] came out at 330.

For the molecule `CC(=O)N[C@H]1[C@H](OCc2cn(CCCOCCOCCOCCCn3cc(CO[C@@H]4O[C@H](CO)[C@@H](O[C@@H]5O[C@H](CO)[C@@H](O)[C@H](O)[C@H]5NC(C)=O)[C@H](O)[C@H]4NC(C)=O)nn3)nn2)O[C@H](CO)[C@@H](O[C@@H]2O[C@H](CO)[C@@H](O)[C@H](O)[C@H]2NC(C)=O)[C@@H]1O` [C5], the IC50 in experiment [1] (setting [2]) amounted to 0.72 µM.

`CC(=O)N[C@H]1[C@H](OCc2cn(Cc3ccccc3)nn2)O[C@H](CO)[C@@H](O[C@@H]2O[C@H](CO)[C@@H](O)[C@H](O)[C@H]2NC(C)=O)[C@@H]1O` [C1]: the IC50 in experiment [1] (setting [2]) was 290 µM. Besides, the “β (relative inhibitory potency)” value in experiment [1] is given as 2.1.

`CC(=O)N[C@@H]1[C@@H](O)[C@H](O)[C@@H](CO)O[C@H]1O` [GlcNAc, N-acetylglucosamine, reference compound]: in the experiment with WGA, the “association constant K” value is on record as 2 × 10^2 to 1.3 × 10^3 M^–1. Moreover, the IC50 in experiment [1] (setting [2]) was 51000 µM. Besides, the “β (relative inhibitory potency)” value in experiment [1] is on record as 1/82.
